# Measurements: publication PMC5766608, “Target engagement imaging of PARP inhibitors in small-cell lung cancer” (Nature Communications, 2018)
# “Also recorded” adds a separate entry of the source.
# How the values were obtained:
# JHU-LX22 cells = assay: Cytotoxicity, Alamar Blue assay; assay type: cell-based, human; settings: 24-96 h
# Method: […]. Cells were plated in 96-well plates (black, clear-bottom, Corning Incorporated) at a density of 5,000 cells/well and allowed them to attach for 24 h. All compounds were prepared as 10 mM stock solutions in DMSO and further diluted in media. Cells were treated with 0, 2, 5, and 10 µM (final solutions containing 1% DMSO) of each compound for 24, 48, 72 and 96 h. Then, media was removed and Alamar Blue reagent was added to each well. Plates were incubated at 37 °C for 4 h under protection from direct light. Fluorescence was read (bottom-read mode) using an excitation wavelength of 570 nm and an emission wavelength of 585 nm on a SpectraMax M5 microplate reader (Molecular Devices, Sunnyvale, CA, USA). The average reading values were analyzed by subtracting the background readings (wells with Alamar Blue but without cells) and compared against the untreated controls of each plate (defined as 100% viability) to determine the percentage of living cells. The experiment was carried out in three biological replicates with four parallels of each compound.
# Supplementary Figure 9 | In vitro toxicity of the tested PARP inhibitors and imaging tracers on JHU-LX22 cells. (a) Assessment of viable cell population during flow cytometry after a 2 hour incubation time of several PARP inhibitors at concentrations between 0 and 5 µM. (b) Cell viability determination using Alamar Blue assays. Cells were incubated with 0, 0.2, 2, 5 or 10 µM of each compound for 24, 48, 72 or 96 h and cell viability was assessed using the Alamar Blue assay. (c) IC values derived from Alamar Blue assays at 72 h and 96 h.
# Viability data represent means from three independent experiments, each with four parallels of each sample. Error bars represent the standard error (SEM). […]
# TNKS1 = target: T1, TNKS1 (Homo sapiens, UniProt O95271); assay: PARP family enzyme activity inhibition screening (BPS Bioscience); assay type: biochemical; settings: 100 nM inhibitor
# T1 construct: purchased BPS Bioscience, San Diego, CA
# T1 sequence (O95271 1-1327): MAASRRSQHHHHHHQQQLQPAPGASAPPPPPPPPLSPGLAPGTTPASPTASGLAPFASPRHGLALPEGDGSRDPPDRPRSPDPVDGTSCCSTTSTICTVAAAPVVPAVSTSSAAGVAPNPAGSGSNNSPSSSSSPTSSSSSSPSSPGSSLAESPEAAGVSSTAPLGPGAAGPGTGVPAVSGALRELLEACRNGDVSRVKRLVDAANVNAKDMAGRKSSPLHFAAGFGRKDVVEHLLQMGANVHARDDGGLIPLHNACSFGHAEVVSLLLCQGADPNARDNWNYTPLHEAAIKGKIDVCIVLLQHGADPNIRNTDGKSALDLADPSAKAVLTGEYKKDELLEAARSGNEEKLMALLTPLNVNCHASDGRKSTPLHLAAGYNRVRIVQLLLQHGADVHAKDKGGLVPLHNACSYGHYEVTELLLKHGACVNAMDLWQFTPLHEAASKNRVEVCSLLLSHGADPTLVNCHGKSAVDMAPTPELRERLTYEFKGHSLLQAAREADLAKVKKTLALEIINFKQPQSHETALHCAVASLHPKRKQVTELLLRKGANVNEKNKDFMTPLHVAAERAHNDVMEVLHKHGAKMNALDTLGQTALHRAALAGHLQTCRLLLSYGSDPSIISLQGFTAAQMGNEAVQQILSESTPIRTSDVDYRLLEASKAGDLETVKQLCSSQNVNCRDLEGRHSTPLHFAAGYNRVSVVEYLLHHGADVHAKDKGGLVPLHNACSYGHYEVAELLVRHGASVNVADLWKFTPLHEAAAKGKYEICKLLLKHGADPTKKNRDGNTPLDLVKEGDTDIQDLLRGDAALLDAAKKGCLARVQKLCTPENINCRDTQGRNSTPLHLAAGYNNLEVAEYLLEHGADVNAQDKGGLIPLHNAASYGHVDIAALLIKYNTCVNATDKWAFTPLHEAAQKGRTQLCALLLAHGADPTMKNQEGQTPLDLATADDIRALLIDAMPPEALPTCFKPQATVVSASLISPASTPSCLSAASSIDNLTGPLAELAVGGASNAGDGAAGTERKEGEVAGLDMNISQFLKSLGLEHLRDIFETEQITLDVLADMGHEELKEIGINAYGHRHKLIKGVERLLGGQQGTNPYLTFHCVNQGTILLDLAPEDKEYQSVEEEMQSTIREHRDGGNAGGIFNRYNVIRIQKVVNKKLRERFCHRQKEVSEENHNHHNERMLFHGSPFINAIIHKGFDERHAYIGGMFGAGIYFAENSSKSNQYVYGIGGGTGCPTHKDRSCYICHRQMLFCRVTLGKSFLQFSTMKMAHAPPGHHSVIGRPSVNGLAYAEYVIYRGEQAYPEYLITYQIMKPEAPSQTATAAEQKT
# Method: Fig. 1 Properties of PARP inhibitors. a Structures of 5 clinical therapeutic PARP inhibitors and the 2 PARP imaging agents. b Heatmap visualizing enzymatic activity screening of 10 small molecules against 12 PARP enzymes at 100 nM concentration (for additional concentrations, see Supplementary Fig. 1)
# Assay was performed by BPS Bioscience, San Diego, CA. 100 µM DMSO solutions of each inhibitor were provided, and the assay was conducted after dilution to 100, 50, or 10 nM. […] Data was reported by BPS as % Enzyme Activity. Triplicates were combined to get a mean ± SD, and these were grouped and plotted onto a heatmap using Prism 7.
# Supplementary Figure 1 | PARP enzyme family binding assays at additional concentrations.
# histone substrate and biotin-labeled NAD+ at 100 nM (Fig. 1b), 50 nM (left) and 10 nM (right) for
# each inhibitor and each enzyme.
SMILES,"Effect on JHU-LX22 cell viability, in words (JHU-LX22 cells)",Inhibition of TNKS1 enzyme activity (TNKS1),inhibition at 0.1 µM (TNKS1)
"Cn1ncnc1[C@H]1c2n[nH]c(=O)c3cc(F)cc(c23)N[C@@H]1c1ccc(F)cc1 [Talazoparib, (8S,9R)-5-Fluoro-8-(4-fluorophenyl)-9-(1-methyl-1H-1,2,4-triazol-5-yl)-2,7,8,9-tetrahydro-3H-pyrido[4,3,2-de]phthalazin-3-one]",most sensitive,exhibited inhibition,–
O=C(c1ccc(F)cc1)N1CCN(C(=O)c2cc(Cc3n[nH]c(=O)c4ccccc34)ccc2F)CC1 [^19F-PARPi],very similar effects on JHU-LX22 cell viability as other inhibitors; also recorded: very similar effects on JHU-LX22 cell viability as olaparib,≤ 5%,–
CC1=CC(C)=[N+]2C1=Cc1ccc(CCC(=O)N3CCN(C(=O)c4cc(Cc5n[nH]c(=O)c6ccccc56)ccc4F)CC3)n1[B-]2(F)F [PARPi-FL],very similar effects on JHU-LX22 cell viability as other inhibitors; also recorded: very similar effects on JHU-LX22 cell viability as olaparib,–,≤ 5%
